Structures can show the parent of a compound that is named as a salt.

The target of the experiment is T1, Human RET kinase cytoplasmic domain (Homo sapiens, UniProt P07949).
T1 construct: made in house
T1 sequence (P07949 658-1114): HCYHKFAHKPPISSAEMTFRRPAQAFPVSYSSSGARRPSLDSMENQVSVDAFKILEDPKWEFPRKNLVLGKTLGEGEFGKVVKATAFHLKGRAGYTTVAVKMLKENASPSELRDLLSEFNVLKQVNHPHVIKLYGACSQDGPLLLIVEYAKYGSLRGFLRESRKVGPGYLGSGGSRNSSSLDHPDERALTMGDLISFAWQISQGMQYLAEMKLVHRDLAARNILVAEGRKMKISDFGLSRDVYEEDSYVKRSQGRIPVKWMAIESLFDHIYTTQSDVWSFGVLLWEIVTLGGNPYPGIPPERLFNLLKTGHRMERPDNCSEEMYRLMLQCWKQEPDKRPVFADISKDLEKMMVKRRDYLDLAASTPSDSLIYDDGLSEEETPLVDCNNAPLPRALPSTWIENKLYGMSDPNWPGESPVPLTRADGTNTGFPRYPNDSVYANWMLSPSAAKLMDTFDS
The experiment is described as follows: RET kinase enzymatic assay. In kind it is biochemical. In a few lines: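 GST-RET, 0.2 nM in 2× enzyme mix (HEPES, CHAPS, BSA, DTT), preincubated with inhibitor 30 min at 23 °C. Reaction for 1 h at 23 °C after adding 2× substrate mix: 20 μM ATP, 20 mM MgCl2, 1 μM biotinylated peptide. Single wells per concentration; IC50 from sigmoidal dose-response fit.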
The molecule `Cc1cc(-c2ccc(NC(=O)Nc3ccc(OC4(C)COC4)c(C(F)(F)F)c3)c(F)c2)c[nH]c1=O` [Example 7, 1-(2-fluoro-4-(5-methyl-6-oxo-1,6-dihydropyridin-3-yl)phenyl)-3-(4-((3-methyloxetan-3-yl)oxy)-3-(trifluoromethyl)phenyl)urea] came in with an IC50 of under 100 nM.

In turn, `CC1(Oc2ccc(NC(=O)Nc3ccc(-c4c[nH]c(=O)c(OC5CC5)c4)cc3F)cc2C(F)(F)F)COC1` [Example 20, 1-(4-(5-Cyclopropoxy-6-oxo-1,6-dihydropyridin-3-yl)-2-fluorophenyl)-3-(4-((3-methyloxetan-3-yl)oxy)-3-(trifluoromethyl)phenyl)urea] registered an IC50 of under 100 nM.

In turn, `CCOc1cc(=O)[nH]cc1-c1ncc(NC(=O)Nc2cc(-c3nnc(C)o3)cc(C(F)(F)F)c2)c(C)n1` [Example 67, 1-(2-(4-Ethoxy-6-oxo-1,6-dihydropyridin-3-yl)-4-methylpyrimidin-5-yl)-3-(3-(5-methyl-1,3,4-oxadiazol-2-yl)-5-(trifluoromethyl)phenyl)urea] returned an IC50 of under 100 nM.

Consider `CCOc1nc(=O)[nH]cc1-c1ccc(NC(=O)Nc2ccc(OC3(C)COC3)c(C(F)(F)F)c2)c(F)c1` [Example 34, 1-(4-(4-Ethoxy-2-oxo-1,2-dihydropyrimidin-5-yl)-2-fluorophenyl)-3-(4-((3-methyloxetan-3-yl)oxy)-3-(trifluoromethyl)phenyl)urea], for which the IC50 is under 100 nM.

In turn, `CC(C)Oc1ccc(NC(=O)Nc2ccc(-c3c[nH]c(=O)c(OCCCF)c3)cc2F)cc1C(F)(F)F` [Example 121] returned an IC50 of under 100 nM.

Consider `CCOc1cc(-c2ccc(NC(=O)Nc3ccc(CN(C)C)c(C(F)(F)F)c3)c(F)c2)c[nH]c1=O` [Example 76], for which the IC50 was under 100 nM.

On to `CNc1cc(-c2ccc(NC(=O)Nc3ccc(OC4(C)COC4)c(C(F)(F)F)c3)c(F)c2)c[nH]c1=O` [Example 95], for which the IC50 is under 100 nM.

As to `CCOc1cc(-c2ccc(NC(=O)Nc3ccc(OC(C)C)c(C(F)F)c3)cc2F)c[nH]c1=O` [Example 160], the IC50 is under 100 nM.

The molecule `CC1(Oc2ccc(NC(=O)Nc3ccc(-c4c[nH]c(=O)c(O)c4)cc3F)cc2C(F)(F)F)COC1` [Example 94] showed an IC50 of under 100 nM.

On to `CCOc1cc(=O)[nH]cc1-c1ncc(NC(=O)Nc2ccc(Cl)c(C(F)(F)F)c2)c(C)n1` [Example 54, 1-(4-Chloro-3-(trifluoromethyl)phenyl)-3-(2-(4-ethoxy-6-oxo-1,6-dihydropyridin-3-yl)-4-methylpyrimidin-5-yl)urea], for which the IC50 was under 100 nM.

With `CCOc1cc(-c2ncc(NC(=O)Nc3ccc(C(C)N(C)C)c(C(F)(F)F)c3)c(C)n2)c[nH]c1=O` (stereo not shown) [Example 176, 1-(4-(1-(Dimethylamino)ethyl)-3-(trifluoromethyl)phenyl)-3-(2-(5-ethoxy-6-oxo-1,6-dihydropyridin-3-yl)-4-methylpyrimidin-5-yl)urea], the IC50 was under 100 nM.

Take `CCOc1cc(-c2ncc(NC(=O)Nc3cc(OCCN(C)C)cc(C(F)(F)F)c3)c(C)n2)c[nH]c1=O` [Example 74, 1-(3-(2-(Dimethylamino)ethoxy)-5-(trifluoromethyl)phenyl)-3-(2-(5-ethoxy-6-oxo-1,6-dihydropyridin-3-yl)-4-methylpyrimidin-5-yl)urea dihydrochloride]: the IC50 is under 100 nM.

Take `CCOc1cc(=O)[nH]cc1-c1ncc(NC(=O)Nc2cc(C(C)(C)C(F)(F)F)on2)cn1` [Example 180, 1-(2-(4-Ethoxy-6-oxo-1,6-dihydropyridin-3-yl)pyrimidin-5-yl)-3-(5-(1,1,1-trifluoro-2-methylpropan-2-yl)isoxazol-3-yl)urea hydrochloride]: the IC50 was under 100 nM.

Molecule `CCOc1cc(-c2ccc(NC(=O)Nc3cc(C(C)(C)C(F)(F)F)on3)c(F)c2)c[nH]c1=O` [Example 11, 1-(4-(5-Ethoxy-6-oxo-1,6-dihydropyridin-3-yl)-2-fluorophenyl)-3-(5-(1,1,1-trifluoro-2-methylpropan-2-yl)isoxazol-3-yl)urea] gave an IC50 of under 100 nM.

For `CCOc1cc(-c2ccc(NC(=O)Nc3ccc(OC4(C)CCOC4)c(C(F)(F)F)c3)c(F)c2)c[nH]c1=O` (stereo not shown) [Example 167], the IC50 is under 100 nM.

Molecule `CCOc1cc(-c2ccc(NC(=O)Nc3ccc(OC4(C)COC4)c(C(F)(F)F)c3)c(F)c2F)c[nH]c1=O` [Example 119] registered an IC50 of under 100 nM.

Take `CCOc1cc(-c2cc(F)c(NC(=O)Nc3ccc(OC4(C)COC4)c(C(F)(F)F)c3)c(F)c2)c[nH]c1=O` [Example 90]: the IC50 is under 100 nM.

`CCOc1cc(-c2cnc(NC(=O)Nc3ccc(OC4(C)COC4)c(C(F)(F)F)c3)c(C)n2)c[nH]c1=O` [Example 108] gave a 50% inhibitory concentration (IC50) of under 100 nM.

Turning to `O=C(Nc1ccc(OCCO)c(C(F)(F)F)c1)Nc1ccc(-c2c[nH]c(=O)c(OC(F)F)c2)cc1F` [Example 164], the IC50 was under 100 nM.

As to `CCOc1cc(-c2ncc(NC(=O)Nc3ccc(C(C)O)c(C(F)(F)F)c3)c(C)n2)c[nH]c1=O` (stereo not shown) [Example 10, 1-(2-(5-Ethoxy-6-oxo-1,6-dihydropyridin-3-yl)-4-methylpyrimidin-5-yl)-3-(4-(1-hydroxyethyl)-3-(trifluoromethyl)phenyl)urea], the IC50 is under 100 nM.

As to `CCOc1cc(-c2ncc(NC(=O)Nc3ccc(CC(C)(C)CO)c(C(F)(F)F)c3)c(C)n2)c[nH]c1=O` [Example 48, 1-(2-(5-Ethoxy-6-oxo-1,6-dihydropyridin-3-yl)-4-methylpyrimidin-5-yl)-3-(4-(3-hydroxy-2,2-dimethylpropyl)-3-(trifluoromethyl)phenyl)urea], the IC50 was under 100 nM.

`CCOc1cc(-c2ncc(NC(=O)Nc3ccc(CC(C)(C)C#N)c(C(F)(F)F)c3)c(C)n2)c[nH]c1=O` [Example 14, 1-(4-(2-Cyano-2-methylpropyl)-3-(trifluoromethyl)phenyl)-3-(2-(5-ethoxy-6-oxo-1,6-dihydropyridin-3-yl)-4-methylpyrimidin-5-yl)urea] returned an IC50 of under 100 nM.

Molecule `CCOc1cc(-c2nc(C)c(NC(=O)Nc3cc(-n4cnc(C)c4)cc(C(F)(F)F)c3)c(C)n2)c[nH]c1=O` [Example 53, 1-(2-(5-Ethoxy-6-oxo-1,6-dihydropyridin-3-yl)-4,6-dimethylpyrimidin-5-yl)-3-(3-(4-methyl-1H-imidazol-1-yl)-5-(trifluoromethyl)phenyl)urea] came in with an IC50 of under 100 nM.

In turn, `CCOc1cc(-c2cc(C)c(NC(=O)Nc3ccc(OC4(C)COC4)c(C(F)(F)F)c3)cn2)c[nH]c1=O` [Example 97] returned an IC50 of under 100 nM.

`CCCOc1cc(-c2ccc(NC(=O)Nc3ccc(OC4(C)COC4)c(C(F)(F)F)c3)cc2)c[nH]c1=O` [Example 131] yielded an IC50 of under 100 nM.

Turning to `CCOc1cc(-c2ccc(NC(=O)Nc3ccc(OC(C)CO)c(C(F)(F)F)c3)c(F)c2)c[nH]c1=O` (stereo not shown) [Example 122], the IC50 is under 100 nM.

Molecule `CCOc1cc(-c2nc(C)c(NC(=O)Nc3ccc(CN4CCN(CC)CC4)c(C(F)(F)F)c3)c(C)n2)c[nH]c1=O` [Example 33, 1-(2-(5-Ethoxy-6-oxo-1,6-dihydropyridin-3-yl)-4,6-dimethylpyrimidin-5-yl)-3-(4-((4-ethylpiperazin-1-yl)methyl)-3-(trifluoromethyl)phenyl)urea] registered an IC50 of under 100 nM.

Take `COCCOc1cc(=O)[nH]cc1-c1ncc(NC(=O)Nc2cc(C(=O)NCCN(C)C)cc(C(F)(F)F)c2)c(C)n1` [Example 187, N-(2-(dimethylamino)ethyl)-3-(3-(2-(4-(2-methoxyethoxy)-6-oxo-1,6-dihydropyridin-3-yl)-4-methylpyrimidin-5-yl)ureido)-5-(trifluoromethyl)benzamide]: the IC50 is under 100 nM.

In the case of `CCOc1cc(=O)[nH]cc1-c1ccc(NC(=O)Nc2ccc(OC3(C)COC3)c(C(F)F)c2)c(F)c1` [Example 124], the IC50 is under 100 nM.

`CCOc1cc(=O)[nH]cc1-c1ncc(NC(=O)Nc2ccc(C(C)(C)C(N)=O)c(C(F)(F)F)c2)c(C)n1` [Example 61, 2-(4-(3-(2-(4-Ethoxy-6-oxo-1,6-dihydropyridin-3-yl)-4-methylpyrimidin-5-yl)ureido)-2-(trifluoromethyl)phenyl)-2-methylpropanamide] showed an IC50 of under 100 nM.

`CC1(Oc2ccc(NC(=O)Nc3ccc(-c4ccc(=O)[nH]c4)cc3)cc2C(F)(F)F)COC1` [Example 157] had an IC50 of under 100 nM.

In turn, `CCOc1cc(-c2ccc(NC(=O)Nc3ccc(C(C)(C)O)c(C(F)(F)F)c3)c(F)c2)c[nH]c1=O` [Example 129] registered an IC50 of under 100 nM.

As for `CCOc1ccc(NC(=O)Nc2ccc(-c3c[nH]c(=O)c(OCC)c3)cc2F)cc1C(F)(F)F` [Example 80], the IC50 is under 100 nM.

For the molecule `O=C(Nc1ccc(-c2c[nH]c(=O)c3occc23)cc1F)Nc1cc(C(F)(F)F)ccc1F` [Example 155], the IC50 is under 100 nM.

For `CCOc1cc(-c2ncc(NC(=O)Nc3cc(C(=O)NCCN(C)C)cc(C(F)(F)F)c3)c(C)n2)c[nH]c1=O` [Example 91], the IC50 was under 100 nM.

In turn, `CCOc1cc(-c2ccc(NC(=O)Nc3ccc(OC4(C)COC4)c(C(F)(F)F)c3)c(C)n2)c[nH]c1=O` [Example 50, 1-(5′-Ethoxy-6-methyl-6′-oxo-1′,6′-dihydro-[2,3′-bipyridin]-5-yl)-3-(4-((3-methyloxetan-3-yl)oxy)-3-(trifluoromethyl)phenyl)urea hydrochloride] showed an IC50 of under 100 nM.

As to `CCOc1cc(Oc2ccc(NC(=O)Nc3ccc(OC4(C)COC4)c(C(F)(F)F)c3)cn2)c[nH]c1=O` [Example 101], the IC50 was under 100 nM.

The values above are taken from patent US10294236B2, “Compounds as rearranged during transfection (RET) inhibitors” (GLAXOSMITHKLINE INTELLECTUAL PROPERTY DEVELOPMENT LIMITED, priority 2014, dated 2019).
